From PubChem BioAssay (NCI)
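Exposure lasted 48 hours, with cells grown in 96-well plates and compounds tested at five concentrations. The concentration for 50% growth inhibition is given as GI50. TGI: concentration producing complete growth inhibition.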

Legend:
Assay in all cases: NCI tumour cell line growth inhibition, 48 h
SK-MEL-28 melanoma = tested on: SK-MEL-28 melanoma
UO-31 renal = tested on: UO-31 renal
OVCAR-3 ovarian = tested on: OVCAR-3 ovarian
SNB-75 CNS = tested on: SNB-75 CNS
HL-60(TB) leukemia = tested on: HL-60(TB) leukemia
EKVX NSCLC = tested on: EKVX NSCLC
HOP-62 NSCLC = tested on: HOP-62 NSCLC
UACC-257 melanoma = tested on: UACC-257 melanoma
NCI-H522 lung = tested on: NCI-H522 lung
M14 melanoma = tested on: M14 melanoma

Row | SMILES | TGI (SK-MEL-28 melanoma) | TGI (UO-31 renal) | TGI (OVCAR-3 ovarian) | TGI (SNB-75 CNS) | TGI (HL-60(TB) leukemia) | TGI (EKVX NSCLC) | TGI (HOP-62 NSCLC) | TGI (UACC-257 melanoma) | TGI (NCI-H522 lung) | TGI (M14 melanoma) | GI50 (SK-MEL-28 melanoma) | GI50 (UO-31 renal) | GI50 (OVCAR-3 ovarian) | GI50 (SNB-75 CNS) | GI50 (HL-60(TB) leukemia) | GI50 (EKVX NSCLC) | GI50 (M14 melanoma) | GI50 (HOP-62 NSCLC) | GI50 (UACC-257 melanoma) | GI50 (NCI-H522 lung)
1 | Cc1nc(-c2cccnc2)sc1C(=O)/C=C/c1cccc([N+](=O)[O-])c1 | > 100 µM | > 100 µM | > 100 µM | > 100 µM | > 100 µM | > 100 µM | > 100 µM | > 100 µM | > 100 µM |  |  |  |  |  |  |  |  |  |  | 
2 | Cc1cc(C)n(C2=NS(=O)(=O)c3ccccc3N2C)n1 | > 100 µM | > 100 µM | > 100 µM |  | > 100 µM | > 100 µM | > 100 µM | > 100 µM | > 100 µM | > 100 µM |  |  |  |  |  |  |  |  |  | 
3 | CCOC(=O)C1(Cc2ccc3ccccc3c2)CCCCC(=O)N1 (centres undefined) | > 100 µM | 82.2 µM | 92.5 µM | 9.22 µM | 30.3 µM | > 100 µM | > 100 µM |  |  | > 100 µM |  |  |  |  |  |  |  |  |  | 
4 | O=C1C2=C(CCC2)Nc2cccc3ncn1c23 | > 100 µM | > 100 µM |  |  | > 100 µM | > 100 µM |  | > 100 µM | > 100 µM |  |  |  |  |  |  |  |  |  |  | 
5 | CCNCCNc1cc(-c2ccc(C#N)cc2)c(C#N)c2nc3ccccc3n12 | 3.72 µM | 3.1 µM | 3.09 µM | 4.24 µM | 4.35 µM | 19.3 µM | 14.9 µM | 7.14 µM | 7.06 µM | 3.79 µM | 1.86 µM | 1.62 µM | 1.66 µM | 1.66 µM | 1.87 µM | 4.75 µM | 1.88 µM | 3.13 µM | 3.72 µM | 2.44 µM
6 | Cc1ccc(C)c(N2C(=O)C(=O)C(c3nc4ccccc4s3)C(=Nc3cccc4c(=O)[nH][nH]c(=O)c34)C2=O)c1 (centres undefined) | > 100 µM | > 100 µM | > 100 µM | > 100 µM | > 100 µM | > 100 µM | > 100 µM | > 100 µM |  | > 100 µM |  |  |  |  |  |  |  |  |  | 
7 | COc1ccc(Nc2nccc(N3CCN(c4c5ccc(Cl)cc5nc5ccc(OC)cc45)CC3)n2)cc1 | > 100 µM | > 100 µM | > 100 µM | 46.7 µM | > 100 µM |  | > 100 µM | > 100 µM | 5.09 µM | > 100 µM | 39.5 µM | 8.26 µM | 11.1 µM | 5.61 µM | 7.22 µM |  | 33 µM | 38.7 µM | > 100 µM | 1.78 µM
8 | COc1ccccc1NC(=O)/C(=C/c1ccccc1)C(C)=O | > 100 µM | > 100 µM | > 100 µM |  | 57.3 µM | > 100 µM | > 100 µM | > 100 µM | 58.2 µM | 67.6 µM |  |  |  |  |  |  |  |  |  | 
9 | Cc1ccccc1/C=C/C(=O)c1ccccc1 | 33.9 µM | 36.2 µM | 31 µM | 34.6 µM |  | 33.7 µM | 30.8 µM | 42.4 µM | 46.8 µM | 29.6 µM |  |  |  |  |  |  |  |  |  | 
10 | CC(C)(C)OC(=O)NC1CCCC1=O (centres undefined) | > 100 µM | > 100 µM | > 100 µM | > 100 µM |  | > 100 µM | > 100 µM | > 100 µM | > 100 µM | > 100 µM |  |  |  |  |  |  |  |  |  | 
11 | Cc1cccc(/C(Br)=C2/OC(=O)c3ccccc32)c1 | > 100 µM |  | > 100 µM | > 100 µM |  | > 100 µM | > 100 µM | > 100 µM | > 100 µM | > 100 µM |  |  |  |  |  |  |  |  |  | 
12 | CCOC(=O)N1CCN(CCCCCOc2ccccc2C2CCCCC2)CC1 | 16.3 µM |  | 24.1 µM | 23 µM | 3.5 µM | 16.5 µM | 8.05 µM |  |  | 11 µM | 2.87 µM |  | 8.29 µM | 10.7 µM | 1.39 µM | 3.23 µM | 2.98 µM | 2.52 µM |  | 
13 | O=C(c1cccs1)C1NO[N+]([O-])=C1c1cccs1 (centres undefined) | 6.8 µM | 1.47 µM | 3.2 µM | 3.89 µM |  | 10.9 µM | 11.4 µM | 15.3 µM | 0.336 µM | 7.87 µM | 2.52 µM | 0.27 µM | 1.79 µM | 1.54 µM |  | 3.71 µM | 2.71 µM | 4.77 µM | 5.16 µM | 0.174 µM
14 | CC(=O)[CH-]C(=O)c1ccccc1.CC(=O)[CH-]C(=O)c1ccccc1.CC1(C)OCC(C2OC3OC(C)(C)OC3C2[O-])O1.CC[O-].[Ti+4] (centres undefined) | 25.1 µM | 41.9 µM | 30.2 µM |  |  | 23.3 µM | 31.1 µM | 54.8 µM | 30.8 µM | 36.1 µM | 11.6 µM | 18.8 µM | 11.7 µM | 6.6 µM |  | 6.56 µM | 16.3 µM | 15.9 µM | 19.4 µM | 16.5 µM
15 | c1ccc(-c2nc(N3CCCNCC3)c3nc(-c4ccccc4)oc3n2)cc1 | 3.15 µM | 2.71 µM | 3.21 µM |  | 3.55 µM | 3.17 µM | 3.23 µM | 3.43 µM |  | 3.4 µM | 1.71 µM | 1.35 µM | 1.75 µM |  | 1.83 µM | 1.65 µM | 1.79 µM | 1.58 µM | 1.8 µM | 
16 | O=C(Cl)C1=C(c2ccccc2)C1c1ccccc1 (centres undefined) | > 100 µM |  | > 100 µM | > 100 µM | > 100 µM | > 100 µM | > 100 µM | > 100 µM | > 100 µM | > 100 µM |  |  |  |  |  |  |  |  |  | 
17 | Fc1ccc2nc(-c3cc(-c4ccc5c(c4)OCO5)n[nH]3)[nH]c2c1 | 53.2 µM | > 24 µM | 18.3 µM | 13.8 µM | 55.5 µM |  | > 43.4 µM | > 100 µM | 13 µM | > 32.5 µM | 8.61 µM | 2.5 µM | 3.29 µM | 2.8 µM | 3.09 µM |  | 2.78 µM | 5.44 µM | 8.91 µM | 2.61 µM
18 | N.N.N.N.N.O=S(=O)([O-])S(=O)(=O)[O-].[Co+3] | > 100 µM | > 100 µM | > 100 µM | > 100 µM | > 100 µM | > 100 µM |  | > 100 µM | > 100 µM | > 100 µM | > 100 µM | > 100 µM | > 100 µM | 62.8 µM | > 100 µM | > 100 µM | > 100 µM |  | > 100 µM | > 100 µM
